The text below walks through data of ChEMBL document CHEMBL4321875, “Potent, Selective, Water Soluble, Brain-Permeable EP2 Receptor Antagonist for Use in Central Nervous System Disease Models” (J Med Chem, 2020).

Converted amounts (≈) assume the structure as drawn.

Data set [1] is described as follows: Aqueous solubility in PBS pH 7.4 incubated for 24 hrs by nephelometry. Format: physicochemical.
Data set [2] is described as follows: Stability in mouse liver microsomes assessed as half life at 1 uM incubated for 120 mins by LC-MS/MS analysis. The class given is ADME, Microsome. The note with it: 2 h.
A short description of data set [3]: Solubility of compound at 2 mg/ml incubated for 24 hrs by shake flask thermodynamic solubility method based HPLC analysis. The class given is physicochemical.

In data set [1], `Cc1[nH]c2ccccc2c1CCNC(=O)c1ccc(N2CCOCC2)cc1` came in with a kinetic solubility at 24 h of 70 µM (≈ 25.4 µg/mL). On the same count and under the same terms, under `Cc1[nH]c2ccccc2c1CCNC(=O)c1ccc(N2CCOCC2)nc1` stands 206 µM (≈ 75.1 µg/mL). In turn, `Cc1[nH]c2ccccc2c1CCNC(=O)c1cnc(Nc2ccncc2)nc1` showed a solubility (kinetic) at 24 h in data set [1] of 38 µM (≈ 14.2 µg/mL). `Cc1cc(C)nc(Nc2ncc(C(=O)NCCc3c(C(F)(F)F)[nH]c4ccccc34)cn2)c1` displayed a solubility (kinetic) at 24 h in data set [1] of 45 µM (≈ 20.5 µg/mL). As for `Cc1ccnc(Nc2ncc(C(=O)NCCc3c(C)[nH]c4ccccc34)cn2)c1`, the t1/2 in data set [2] is given as 8 min. For the same molecule, the solubility (kinetic) at 24 h in data set [1] was 25 µM (≈ 9.66 µg/mL). In the case of `Cc1cc(C)nc(Nc2ncc(C(=O)NCCc3c(C(F)(F)F)[nH]c4ccccc34)cn2)c1.Cl`, in data set [3], the solubility (thermodynamic) at 24 h worked out at 700 µM. Turning to `Cc1ccc(Nc2ncc(C(=O)NCCc3c(C)[nH]c4ccccc34)cn2)c(C)n1`, the kinetic solubility at 24 h in data set [1] turned out to be 100 µM (≈ 40 µg/mL).
